According to patent US9561228B2 (Celgene Avilomics Research, Inc., priority 2013, dated 2017):
pEC50, pIC50: −log10 of the molar value.

How the values were obtained:
[1] = system: ERK1/2 phosphorylation of p90RSK in HT29 cells; assay: pRSK MSD Assay in HT29 cells; type: cell-based; conditions: Homo sapiens, HT-29, read-out: ERK1/ERK2 PRSK MSD HT29 EC50
Procedure: The protocol below describes an assay to measure the kinase activity of ERK1/2 to phosphorylate a substrate, p90RSK, in the presence or absence of a test compound. This experiment was conducted using a Mesoscale Discovery plate. The day before the assay, HT29 cells were split and plated at 50,000 cells/well in complete growth media. After allowing cells to adhere, the media was removed and replaced with media containing 0.1% FBS and incubated overnight. Blank MSD plates (Mesoscale Discovery, Cat # L15XA3) were coated with 25 μl/well RSK capture antibody (BD Biosciences, Cat. #610226) and incubated at 4° C. overnight, then blocked with 150 μl of 3% BSA solution. The next day, the media from the cell culture plate was removed and replaced with 100 μl of media containing a test compound and incubated for 120 minutes at 37° C. The media was removed and replaced with 55 μl per well of lysis buffer with protease inhibitors (Roche Biosciences, Cat. #11836170001) and phosphatase inhibitors (Sigma-Aldrich, Cat. # P-0044 and P-5726), followed by incubation at 4° C. for 30 minutes. 50 μl of lysate was transferred to a blocked MSD plate, followed by incubation at room temperature for 2 hours under constant shaking. The plate was washed 3 times with MSD wash buffer (Mesoscale Discovery, Cat. # R617TX), and 25 μl/well phospho-RSK (pRSK) detection antibody (Cell Signaling Technology, Cat. #9335) was added with Sulfo-tagged detection antibody (Mesoscale Discovery, Cat. # R32AB-1) diluted in 1% BSA in MSD wash buffer. This mixture was incubated for 1 hour at room temperature under constant shaking. The plate was washed 3 times, and 150 μl 1×MSD read buffer was added, followed by signal detection in an MSD plate reader.

[2] = system: HT-29 cells (colorectal adenocarcinoma); assay: Inhibition of cancer cell proliferation, HT-29 (CellTiterGlo, 72 hours); type: cell-based; conditions: Homo sapiens
Procedure: Measurement of Inhibition of Cancer Cell Proliferation (HT-29/Colorectal Adenocarcinoma)
The following protocol used an HT-29 cell line, which cell line is a model for colorectal adenocarcinoma. HT-29 cells were split and 3000 cells in 100 μl of growth medium were added per well of a flat-bottom 96-well plate. A two-fold test compound solution in serum-free RPM1640 was made, starting at 5,000 nM. Then, 3-fold serial dilutions were made across the plate from well 1 to well 11. Well 12, the last well in a row on the plate, was left as untreated control. 100 μl compound solutions were then transferred to the wells, so the total volume of media was 200 μl per well. Plates were returned to a 37° C. incubator, and the cells were cultured for 72 hours. To measure cell proliferation after 72 hours, media was discarded from the plates, 50 μl/well of fresh medium was added, and 50 μl CellTiterGlo solution was added (Promega Cat#G7573). The plate was covered with a dark lid and incubated for 10 min. A white sealing tape was applied to the bottom of the plate, and the plate was read in a luminescence plate reader. […] A 2-fold serial dilution was used to generate 8 cell densities from 50,000-390 cells per well in 50 μl media. 50 μl CellTiterGlo was added per well, and the plate was read in a luminescence plate reader after 10 min. The reading was plotted vs. cell number to generate a standard curve and the equation of the curve fit. The compound-treated sample luminescence readings were converted to cell numbers using the curve-fit equation. The percent of inhibition, using untreated control as 100% growth, was then calculated. GI50 was then calculated by GraphPad Prism.

[3] = target: T1, MEK1 activated ERK1 (Homo sapiens, UniProt P27361); assay: Omnia continuous-read kinase assay for potency against MEK1 activated ERK1; type: biochemical; conditions: MEK1 activated ERK1, ATP at KM; read-out: ERK1 Omnia WT ATP KM IC50
T1 construct: purchased Millipore (Billerica, Mass.) 14-439-K
Method in brief: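 Apparent IC50 came from initial reaction slopes (RFU vs time) plotted against log inhibitor with a variable-slope fit. Reactions were started with ERK1 (4 nM final) added to 50 μM ATP, roughly at its appKM, and 10 μM Sox-conjugated ST17 peptide in 20 mM Tris pH 7.5, 5 mM MgCl2. Fluorescence was monitored every 71 seconds.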

T1 sequence (P27361 whole entry): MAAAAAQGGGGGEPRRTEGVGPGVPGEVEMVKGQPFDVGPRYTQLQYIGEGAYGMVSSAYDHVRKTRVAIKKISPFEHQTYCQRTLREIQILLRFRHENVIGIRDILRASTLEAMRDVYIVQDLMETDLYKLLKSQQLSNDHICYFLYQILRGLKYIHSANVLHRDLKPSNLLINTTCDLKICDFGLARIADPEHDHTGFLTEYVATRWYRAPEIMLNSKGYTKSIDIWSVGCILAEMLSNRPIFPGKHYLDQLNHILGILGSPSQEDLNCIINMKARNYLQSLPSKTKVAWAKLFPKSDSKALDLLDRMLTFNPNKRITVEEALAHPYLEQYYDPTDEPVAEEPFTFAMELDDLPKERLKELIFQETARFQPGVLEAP

| SMILES | pEC50 [1] | GI50 [2] [µM] | pIC50 [3] |
| --- | --- | --- | --- |
| C=CC(=O)Nc1ccccc1Nc1nc(N[C@H]2CCCN(C=O)C2)ncc1C(F)(F)F [Compound I-9, (S)—N-(2-((2-((1-formylpiperidin-3-yl)amino)-5-(trifluoromethyl)pyrimidin-4-yl)amino)phenyl)acrylamide] | > 7.00 | 0.101 to 0.5 | – |
| C=CC(=O)Nc1ccccc1Nc1nc(NC2CCN(S(C)(=O)=O)CC2)ncc1C(F)(F)F [Compound I-13, N-(2-((2-((1-(methylsulfonyl)piperidin-4-yl)amino)-5-(trifluoromethyl)pyrimidin-4-yl)amino)phenyl)acrylamide] | 6.30 to 7.00 | 0.101 to 0.5 | – |
| C=CC(=O)Nc1ccccc1Nc1nc(Nc2cc(C(=O)NOC)ccc2C)ncc1C(F)(F)F [Compound I-69, 3-((4-((2-Acrylamidophenyl)amino)-5-(trifluoromethyl)pyrimidin-2-yl)amino)-N-methoxy-4-methylbenzamide] | 6.30 to 7.00 | < 0.1 | – |
| C=CC(=O)Nc1ccccc1Nc1nc(Nc2cc(C(N)=O)ccc2C#N)ncc1C(F)(F)F [Compound I-71, 3-((4-((2-Acrylamidophenyl)amino)-5-(trifluoromethyl)pyrimidin-2-yl)amino)-4-cyanobenzamide] | > 7.00 | 0.101 to 0.5 | – |
| C=C(C)S(=O)(=O)Nc1cc(F)ccc1Nc1nc(Nc2cc(C(C)=O)ccc2C)ncc1C(F)(F)F [Compound I-99, N-(2-((2-((5-acetyl-2-methylphenyl)amino)-5-(trifluoromethyl)pyrimidin-4-yl)amino)-5-fluorophenyl)prop-1-ene-2-sulfonamide] | < 6.00 | – | 6.00 to 6.30 |
| C=CC(=O)Nc1ccccc1Nc1nc(NC2CCCCC2)ncc1Cl [Compound I-107, N-(2-((5-chloro-2-(cyclohexylamino)pyrimidin-4-yl)amino)phenyl)acrylamide] | 6.30 to 7.00 | – | 6.30 to 7.00 |
| CCOCCC(=O)Nc1ccccc1Nc1nc(Nc2cc(C(N)=O)ccc2C)ncc1Cl [Compound I-130] | – | > 1 | – |
| C=CC(=O)Nc1ccccc1Nc1nc(N[C@H]2CCCN(C(=O)C(C)(C)O)C2)ncc1Cl [Compound I-135, (S)—N-(2-((5-chloro-2-((1-(2-hydroxy-2-methylpropanoyl)piperidin-3-yl)amino)pyrimidin-4-yl)amino)phenyl)acrylamide] | < 6.00 | – | 6.30 to 7.00 |
| C=CC(=O)Nc1ccccc1Nc1nc(N[C@H]2CCCN(C(=O)[C@H](C)O)C2)ncc1Cl [Compound I-138, N-(2-((5-chloro-2-(((S)-1-((S)-2-hydroxypropanoyl)piperidin-3-yl)amino)pyrimidin-4-yl)amino)phenyl)acrylamide] | < 6.00 | – | 6.00 to 6.30 |
| C=CC(=O)Nc1ccccc1Nc1nc(Nc2cc(C(=O)NOC)ccc2OC)ncc1Cl [Compound I-187, 3-((4-((2-acrylamidophenyl)amino)-5-chloropyrimidin-2-yl)amino)-N,4-dimethoxybenzamide] | 6.30 to 7.00 | – | 6.30 to 7.00 |
| C=CC(=O)N[C@@H]1CCCC[C@H]1Nc1nc(Nc2cc(C(=O)NOC)ccc2C)ncc1Cl [Compound I-190, 3-((4-(((1R,2R)-2-acrylamidocyclohexyl)amino)-5-chloropyrimidin-2-yl)amino)-N-methoxy-4-methylbenzamide] | – | > 1 | – |
| C=CC(=O)Nc1ccccc1Nc1nc(Nc2cc(C(=O)NOCCO)ccc2OC)ncc1Cl [Compound I-194, 3-((4-((2-acrylamidophenyl)amino)-5-chloropyrimidin-2-yl)amino)-N-(2-hydroxyethoxy)-4-methoxybenzamide] | 6.00 to 6.30 | – | 6.30 to 7.00 |
| C=CC(=O)Nc1ccccc1Nc1nc(Nc2cc(C(=O)NOC)ccc2C#N)ncc1Cl [Compound I-195, 3-((4-((2-acrylamidophenyl)amino)-5-chloropyrimidin-2-yl)amino)-4-cyano-N-methoxybenzamide] | < 6.00 | – | 6.30 to 7.00 |
| C=CC(=O)N(C)c1ccccc1Nc1nc(Nc2cc(C(N)=O)ccc2C#N)ncc1Cl [Compound I-196, 3-((5-chloro-4-((2-(N-methylacrylamido)phenyl)amino)pyrimidin-2-yl)amino)-4-cyanobenzamide] | < 6.00 | – | 6.00 to 6.30 |
| C=CC(=O)Nc1ccccc1Nc1nc(Nc2cc(C(=O)NOCCO)ccc2C)ncc1Cl [Compound I-198, 3-((4-((2-acrylamidophenyl)amino)-5-chloropyrimidin-2-yl)amino)-N-(2-hydroxyethoxy)-4-methylbenzamide] | 6.30 to 7.00 | – | 6.30 to 7.00 |
| C=CC(=O)Nc1cc(F)ccc1Nc1nc(Nc2cc(C(N)=O)ccc2C#N)ncc1Cl [Compound I-207, 3-(4-(2-acrylamido-4-fluorophenylamino)-5-chloropyrimidin-2-ylamino)-4-cyanobenzamide] | < 6.00 | – | 6.30 to 7.00 |
| C=CC(=O)Nc1ccccc1Nc1nc(Nc2ccc(F)cc2OC)ncc1Cl [Compound I-210, N-(2-((5-chloro-2-((4-fluoro-2-methoxyphenyl)amino)pyrimidin-4-yl)amino)phenyl)acrylamide] | 6.30 to 7.00 | – | 6.30 to 7.00 |
| C=CC(=O)Nc1cc(F)ccc1Nc1nc(Nc2ccc(F)cc2OC)ncc1Cl [Compound I-213, N-(2-((5-chloro-2-((4-fluoro-2-methoxyphenyl)amino)pyrimidin-4-yl)amino)-5-fluorophenyl)acrylamide] | 6.30 to 7.00 | – | 6.30 to 7.00 |
| C=CC(=O)Nc1ccccc1Nc1nc(Nc2cc(C(=O)O)ccc2C)ncc1Cl [Compound I-225, 3-((4-((2-acrylamidophenyl)amino)-5-chloropyrimidin-2-yl)amino)-4-methylbenzoic acid] | < 6.00 | – | 6.30 to 7.00 |
| C#CC(=O)NCCCOc1cc(C)c(Nc2ncc(Cl)c(Nc3ccccc3NC(=O)C=C)n2)cc1C(N)=O [Compound I-227, 5-((4-((2-acrylamidophenyl)amino)-5-chloropyrimidin-2-yl)amino)-4-methyl-2-(3-propiolamidopropoxy)benzamide] | < 6.00 | – | 6.30 to 7.00 |
| C=CC(=O)Nc1cc(C)ccc1Nc1nc(Nc2ccnc(Cl)c2)ncc1Cl [Compound I-230, N-(2-((5-chloro-2-((2-chloropyridin-4-yl)amino)pyrimidin-4-yl)amino)-5-methylphenyl)acrylamide] | 6.30 to 7.00 | – | 6.00 to 6.30 |
| C=CC(=O)Nc1ccccc1Oc1nc(Nc2ccc(N3CCN(C(C)=O)CC3)cc2OC)ncc1C(N)=O [Compound I-258, 2-((4-(4-acetylpiperazin-1-yl)-2-methoxyphenyl)amino)-4-(2-acrylamidophenoxyl)pyrimidine-5-carboxamide] | – | > 1 | – |
| C=CC(=O)Nc1ccccc1Nc1nc(Nc2cc(NC(=O)CCCC(=O)NCCCOCCOCCOCCCNC(=O)CCCC[C@@H]3SC[C@@H]4NC(=O)N[C@@H]43)cc(C(N)=O)c2)ncc1Cl [Compound I-304, N^1-(3-((4-((2-acrylamidophenyl)amino)-5-chloropyrimidin-2-yl)amino)-5-carbamoylphenyl)-N^5-(15-oxo-19-((3aS,4S,6aR)-2-oxohexahydro-1H-thieno[3,4-d]imidazol-4-yl)-4,7,10-trioxa-14-azanonadecyl)glutaramide] | < 6.00 | – | 6.30 to 7.00 |
| C=CC(=O)Nc1ccccc1Nc1nc(Nc2cc(C(N)=O)c(OCCCNC(=O)C#CC)cc2C)ncc1Cl [Compound I-305, 5-((4-((2-acrylamidophenyl)amino)-5-chloropyrimidin-2-yl)amino)-2-(3-(but-2-ynamido)propoxy)-4-methylbenzamide] | < 6.00 | – | 6.30 to 7.00 |
